In patent publication US9452154B2, “Methods for treating HCV” (Gilead Sciences, Inc., priority 2010, dated 2016):
Where “and” joins values, the source holds several entries; their conditions need not be identical. Identical values can stand only once. Like-named read-outs stand apart in the source and are kept apart here. Marks after values point to notes of the source that are not given here.

Tests used:
HCV genotype 1a replicon [1] = experiment: Biological Example 3: HCV genotype 1a replicon assay, EC50; assay type: cell-based; conditions: IFN-α in Units (U) per milliliter (mL)
Experimental: The HCV genotype 1a replicon cell line used in this study was described previously. The cells were grown in cell culture medium containing Dulbecco's Modified Eagle Medium (DMEM) with GlutaMAX (Gibco, Carlsbad, Calif., Cat#10569-044), supplemented with 10% FBS (HyClone, Logan, Utah, Cat#SH30071.03), 100 Units/mL Penicillin, 100 μg/mL Streptomycin (Gibco, Carlsbad, Calif., Cat#15140-122), and 0.1 mM non-essential amino acids (Gibco, Carlsbad, Calif., Cat#11140-050). Replicon cells were maintained in 0.5 mg/mL Geneticin (Invitrogen, Carlsbad, Calif., Cat#10131-035) to prevent the loss of HCV replicon. The cells were passaged every 3-4 days before reaching confluency.
(§1) [formula] where XC is the fluorescence signal from the compound-treated well; MB is the average fluorescence signal from puromycin-treated wells; MD is the average fluorescence signal from DMSO-treated wells. The anti-HCV replication activity was determined by the luminescence signal generated from the reporter renilla luciferase of the HCV replicon. The percent inhibition on HCV replicon was calculated using equation 1, where XC is the luminescence signal from compound-treated well; MB is average luminescence signal from the ITMN-191-treated wells; MD is the average luminescence signal from DMSO-treated wells.
(§2) Both CC50 and EC50 values were obtained using Pipeline Pilot 5.0 software package (Accelrys, San Diego, Calif.) by nonlinear regression fitting of experimental data to equation 2: […]

[2] = system: Huh-7 cells carrying a HCV genotype 1a replicon; experiment: Biological Example 3: cytotoxicity (calcein AM), CC50; assay type: cell-based; conditions: HCV genotype 1a replicon cells; IFN-α in Units (U) per milliliter (mL)
Experimental: The HCV replicon assay was a multiplex assay which can assess both cytotoxicity and anti-replicon activity from the same well. The CC50 assay was performed first.
The cytotoxicity effect was determined by calcein AM conversion to fluorescent product. The percent cytotoxicity was calculated by equation 1:
as §1, §2

HCV 1b replicon system = experiment: Biological Example 5: antiviral combination studies with Compound 6 (MacSynergy II); assay type: cell-based; conditions: in combination with Compound 6
[3] = system: NS3 GT1a mutant replicons; assay type: cell-based, HCV
Experimental: (§3) GT1b and GT1a replicons carrying Renilla Luciferase reporter were used to generate the mutant replicons. The mutations were introduced into the replicon construct by site-directed mutagenesis and confirmed by sequencing. Mutant replicon RNAs were generated from DNA by in vitro transcription and transfected into Huh-7 Lunet or C1 cells
(§4) Compounds were serially diluted 1:3 in 100% DMSO (Sigma). These serial dilutions were added to the cells at a 1:200 dilution to achieve a final concentration of 0.5% DMSO in a total volume of 200 μL. […] EC50 values were calculated using Prism.
(§5) For comparison, a fold change of 0-3 is considered “sensitive”, a fold change of 3-10 is considered “low”, a fold change of 10-50 is considered “medium” and a fold change of greater than […] is considered “high”.

[4] = system: NS3 GT1b mutant replicons; assay type: cell-based, HCV
Experimental: as §3, §4, §5

[5] = system: GT1b and GT1a mutant replicons; experiment: Biological Example 8: summary of cross resistance of mutant replicons; assay type: cell-based, HCV
Experimental: as §3, §4, §5

[6] = system: Huh-7 cells carrying a HCV genotype 1a replicon; experiment: Biological Example 3: cytotoxicity in combination studies (MacSynergy II); conditions: in combination with Compound 4
HCV genotype 1a replicon [7] = experiment: Biological Example 3: antiviral combination studies with Compound 4 (MacSynergy II); conditions: in combination with Compound 4

IFN-α [reference compound] was tested, and the EC50 (HCV genotype 1a replicon [1]) was 1.4 ± 0.3^b U/mL, the CC50 [2] was >50^b U/mL and the “Antagonism Volume” value (HCV 1b replicon system) was 0.0 ± 0.0 nM^2. For the same substance, the Interaction (HCV 1b replicon system) was “Minor Synergy”, the “Synergy Volume” value (HCV 1b replicon system) was 32 nM^2 and 32 ± 1.4 nM^2 and the “fold change in EC50 vs wild-type GT1a” value ([3]; mutant A156T) was 0.1 fold. For the same substance, the “fold change in EC50 vs wild-type GT1a” value ([3]; mutant D168A) was 1.4 fold, the “fold change in EC50 vs wild-type GT1a” value ([3]; mutant D168E) was 2.1 fold and the “fold change in EC50 vs wild-type GT1a” value ([3]; mutant D168G) was 0.8 fold. For the same substance, the “fold change in EC50 vs wild-type GT1a” value ([3]; mutant D168H) was 0.9 fold, the “fold change in EC50 vs wild-type GT1a” value ([3]; mutant D168N) was 1.1 fold and the “fold change in EC50 vs wild-type GT1a” value ([3]; mutant D168V) was 1.0 fold. The “fold change in EC50 vs wild-type GT1a” value ([3]; mutant D168Y) was 1.2 fold, the “fold change in EC50 vs wild-type GT1a” value ([3]; mutant R155I) was 0.6 fold and the “fold change in EC50 vs wild-type GT1a” value ([3]; mutant R155K) was 0.7 fold. The “fold change in EC50 vs wild-type GT1a” value ([3]; mutant R155K + L31M) was 0.2 fold, the “fold change in EC50 vs wild-type GT1a” value ([3]; mutant R155K + M28T) was 1.1 fold and the “fold change in EC50 vs wild-type GT1a” value ([3]; mutant R155K + Q30H + Y448H) was 1.9 fold. The “fold change in EC50 vs wild-type GT1a” value ([3]; mutant R155K + Q30R) was 1.6 fold, the “fold change in EC50 vs wild-type GT1a” value ([3]; mutant R155K + Y93H) was 0.3 fold and the “fold change in EC50 vs wild-type GT1a” value ([3]; mutant R155K + Y488H (second line, r26)) was 0.7 fold. The “fold change in EC50 vs wild-type GT1a” value ([3]; mutant R155M) was 0.3 fold, the “fold change in EC50 vs wild-type GT1a” value ([3]; mutant R155S) was 0.1 fold and the “fold change in EC50 vs wild-type GT1a” value ([3]; mutant R155T) was 0.2 fold. The “fold change in EC50 vs wild-type GT1a” value ([3]; mutant R155W) was 0.6 fold, the “fold change in EC50 vs wild-type GT1a” value ([3]; mutant R155k + Q30H) was 1.4 fold and the “fold change in EC50 vs wild-type GT1b” value ([4]; mutant A156D) was 0.6 fold. The “fold change in EC50 vs wild-type GT1b” value ([4]; mutant A156G) was 1.1 fold, the “fold change in EC50 vs wild-type GT1b” value ([4]; mutant A156T) was 0.8 fold and the “fold change in EC50 vs wild-type GT1b” value ([4]; mutant A156V) was 0.9 fold. The “fold change in EC50 vs wild-type GT1b” value ([4]; mutant D168A) was 0.9 fold, the “fold change in EC50 vs wild-type GT1b” value ([4]; mutant D168E) was 0.9 fold and the “fold change in EC50 vs wild-type GT1b” value ([4]; mutant D168E + L31V + Y448H) was 0.7 fold. The “fold change in EC50 vs wild-type GT1b” value ([4]; mutant D168E + Y93H + Y448H) was 0.4 fold, the “fold change in EC50 vs wild-type GT1b” value ([4]; mutant D168G) was 0.6 fold and the “fold change in EC50 vs wild-type GT1b” value ([4]; mutant D168H) was 0.8 fold. For the same substance, the “fold change in EC50 vs wild-type GT1b” value ([4]; mutant D168N) was 1.0 fold, the “fold change in EC50 vs wild-type GT1b” value ([4]; mutant D168T) was 0.9 fold and the “fold change in EC50 vs wild-type GT1b” value ([4]; mutant D168V) was 1.5 fold. For the same substance, the “fold change in EC50 vs wild-type GT1b” value ([4]; mutant D168V + L31V + Y448H) was 0.5 fold, the “fold change in EC50 vs wild-type GT1b” value ([4]; mutant D168V + Y93H + Y448H) was 0.6 fold and the “fold change in EC50 vs wild-type GT1b” value ([4]; mutant D168Y) was 1.3 fold. For the same substance, the “fold change in EC50 vs wild-type GT1b” value ([4]; mutant L31V + D168E) was 1.3 fold, the “fold change in EC50 vs wild-type GT1b” value ([4]; mutant L31V + D168V) was 1.2 fold and the “fold change in EC50 vs wild-type GT1b” value ([4]; mutant R155C) was 0.7 fold. For the same substance, the “fold change in EC50 vs wild-type GT1b” value ([4]; mutant R155G) was 1.1 fold, the “fold change in EC50 vs wild-type GT1b” value ([4]; mutant R155K) was 1.5 fold and the “fold change in EC50 vs wild-type GT1b” value ([4]; mutant R155L) was 1.1 fold. The “fold change in EC50 vs wild-type GT1b” value ([4]; mutant R155Q) was 0.6 fold, the “fold change in EC50 vs wild-type GT1b” value ([4]; mutant R155W) was 0.5 fold and the “fold change in EC50 vs wild-type GT1b” value ([4]; mutant Y93H + D168E) was 1.1 fold. The “fold change in EC50 vs wild-type GT1b” value ([4]; mutant Y93H + D168V) was 0.7 fold, the susceptibility of mutants ([5]; all single NS3 PI-resistant mutants) was “full susceptibility” and the susceptibility of mutants ([5]; triple class mutants that confer resistance to PI, NS5A and Compound 1) was “susceptible”. The “Antagonism Volume (cytotoxicity)” value [6] was −7 ± 13 nM^2%, the “Interaction (cytotoxicity)” value [6] was “Additivity (Additivity: ≦25 and >−25 nM^2%)” and the “Synergy Volume (cytotoxicity)” value [6] was 8 ± 12 nM^2%. For the same substance, the “Antagonism Volume” value (HCV genotype 1a replicon [7]) was 0 ± 0 nM^2%, the Interaction (HCV genotype 1a replicon [7]) was “Additivity (Additivity: ≦25 and >−25 nM^2%)” and the “Synergy Volume” value (HCV genotype 1a replicon [7]) was 12 ± 6 nM^2%.
